Broadly, the IC50 is the point on the concentration scale where inhibition reaches its midpoint.

Structures are written as SMILES. Counter-ions that a name gives are not always drawn.

These results are taken from US10428080B2, “TBK/IKK inhibitor compounds and uses thereof” (Merck Patent GmbH, priority 2015, dated 2019).

In one test the target is T1, TBK1 (Homo sapiens, UniProt Q9UHD2).
T1 sequence (Q9UHD2 1-729): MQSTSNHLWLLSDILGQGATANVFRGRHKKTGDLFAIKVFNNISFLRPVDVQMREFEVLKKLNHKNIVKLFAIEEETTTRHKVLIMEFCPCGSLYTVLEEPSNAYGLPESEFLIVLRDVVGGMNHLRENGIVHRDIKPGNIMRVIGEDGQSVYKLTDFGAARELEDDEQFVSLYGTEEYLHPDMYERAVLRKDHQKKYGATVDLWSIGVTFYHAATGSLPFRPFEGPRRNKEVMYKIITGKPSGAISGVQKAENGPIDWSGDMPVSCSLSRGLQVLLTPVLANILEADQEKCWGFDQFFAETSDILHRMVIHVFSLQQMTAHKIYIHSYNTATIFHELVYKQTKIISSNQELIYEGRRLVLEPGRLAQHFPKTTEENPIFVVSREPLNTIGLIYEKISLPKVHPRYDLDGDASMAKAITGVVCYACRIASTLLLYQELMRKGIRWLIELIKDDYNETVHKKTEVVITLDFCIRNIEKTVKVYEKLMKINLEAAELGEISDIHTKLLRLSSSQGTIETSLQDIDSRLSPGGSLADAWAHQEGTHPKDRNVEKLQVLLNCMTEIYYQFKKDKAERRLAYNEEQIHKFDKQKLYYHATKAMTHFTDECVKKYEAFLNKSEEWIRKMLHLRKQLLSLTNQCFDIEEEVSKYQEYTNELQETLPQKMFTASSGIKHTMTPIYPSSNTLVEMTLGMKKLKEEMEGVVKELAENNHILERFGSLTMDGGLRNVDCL
Put plainly: TBK Biochemical Assay. The note with it: read-out: TBK1 IC50. A digest of the protocol: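 TBK1 enzyme and substrate incubated with compounds (10-point 1:4 dilution, top 30 uM final, 1% DMSO) for 90 min at 25° C, then stopped. Substrate/product peaks read by microfluidic mobility-shift (Caliper LabChip); 10 uM staurosporine as full-inhibition control.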

A further test addresses T2, IKKε (Homo sapiens, UniProt Q14164).
T2 sequence (Q14164 1-716): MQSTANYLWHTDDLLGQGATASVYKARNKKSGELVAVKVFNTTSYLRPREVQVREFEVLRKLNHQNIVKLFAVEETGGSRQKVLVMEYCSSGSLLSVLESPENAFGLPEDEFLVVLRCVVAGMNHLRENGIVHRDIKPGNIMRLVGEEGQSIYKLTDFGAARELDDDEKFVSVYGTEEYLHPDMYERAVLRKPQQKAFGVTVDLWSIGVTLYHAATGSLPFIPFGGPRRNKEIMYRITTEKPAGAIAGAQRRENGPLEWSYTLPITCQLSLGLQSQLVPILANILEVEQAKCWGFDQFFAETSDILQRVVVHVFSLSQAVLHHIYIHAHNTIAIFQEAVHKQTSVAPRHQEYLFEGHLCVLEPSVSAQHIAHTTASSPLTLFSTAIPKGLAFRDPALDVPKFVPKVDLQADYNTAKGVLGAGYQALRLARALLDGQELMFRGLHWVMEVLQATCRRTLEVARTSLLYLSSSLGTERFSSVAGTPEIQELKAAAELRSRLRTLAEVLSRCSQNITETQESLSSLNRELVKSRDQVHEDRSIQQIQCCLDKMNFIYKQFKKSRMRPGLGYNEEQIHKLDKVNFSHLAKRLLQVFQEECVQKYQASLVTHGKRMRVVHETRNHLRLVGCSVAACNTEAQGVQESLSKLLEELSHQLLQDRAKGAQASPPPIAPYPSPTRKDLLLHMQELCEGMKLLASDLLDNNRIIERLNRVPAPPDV
Put plainly: IKKe Biochemical Assay. The following applies: read-out: IKKε IC50. A digest of the protocol: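 Recombinant IKKε and substrate were incubated with compound (10-point 1:4 series, top 30 uM final, 1% DMSO) for 90 min at 25° C, then stopped. Substrate-to-product conversion was read by LabChip microfluidic mobility shift; 10 uM staurosporine served as full-inhibition wells.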

Test [1] concerns phosphorylation of the IRF-3 protein in MDA-MB-468 cells. Put plainly: pIRF3 immunocytochemistry cell based assay. The note with it: Homo sapiens; MDA-MB-468 cells, Poly(I:C) stimulation; read-out: pIRF3 IC50. A digest of the protocol:
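MDA-MB-468 cells got compounds (10-point, 3-fold from 10 uM) for 1 h at 37 °C, then 10 ug/ml Poly(I:C) for 2 h. Fixed, permeabilized cells were immunostained for pIRF3 with AlexaFluor488 and counterstained with PI. % phosphorylation was read by laser scanning cytometry, and IC50 curves were fitted.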

`COc1cc(C(=O)N(C)C)ccc1-c1cc2nccc(-c3ccc(OCC4CCNCC4)c(C#N)c3)c2o1` [Compound 155, 4-{7-[3-Cyano-4-(piperidin-4-ylmethoxy)-phenyl]-furo[3,2-b]pyridin-2-yl}-3-methoxy-N,N-dimethyl-benzamide]: the IC50 at TBK1 was less than 100 nM; on IKKε, less than 100 nM; in test [1], 100 to 1000 nM.
Consider `COc1cc(C(=O)N2CCC3(CCO3)CC2)ccc1-c1cc2nccc(-c3ccc(OC4CCOCC4)c(C#N)c3)c2o1` [Compound 3, 5-{2-[2-Methoxy-4-(1-oxa-7-aza-spiro[3.5]nonane-7-carbonyl)-phenyl]-furo[3,2-b]pyridin-7-yl}-2-(tetrahydro-pyran-4-yloxy)-benzonitrile], for which the IC50 was less than 100 nM on TBK1, less than 100 nM on IKKε and 100 to 1000 nM in test [1].
Take `CN(C)C(=O)c1ccc(-c2cc3nccc(-c4ccc(N5CC[C@@H](F)C5)c(C#N)c4)c3o2)cc1` [Compound 120, 4-{7-[3-Cyano-4-((R)-3-fluoro-pyrrolidin-1-yl)-phenyl]-furo[3,2-b]pyridin-2-yl}-N,N-dimethyl-benzamide]: the concentration for half-maximal inhibition (IC50) at TBK1 was less than 100 nM; on IKKε, less than 100 nM; in test [1], 100 to 1000 nM.
Regarding `COc1cc(C(=O)N(C)CCO)cnc1-c1cc2nccc(-c3ccc(OC4CCOCC4)c(C#N)c3)c2o1` [Compound 328, 6-[7-[3-cyano-4-(oxan-4-yloxy)phenyl]furo[3,2-b]pyridin-2-yl]-N-(2-hydroxyethyl)-5-methoxy-N-methylpyridine-3-carboxamide], the IC50 (on TBK1; on IKKε; in test [1]) was less than 100 nM each time.
Consider `COc1cc(C(=O)N(C)C)n(C)c1-c1cc2nccc(-c3ccc(OC4CCOCC4)c(C#N)c3)c2o1` [Compound 402, 5-[7-[3-cyano-4-(oxan-4-yloxy)phenyl]furo[3,2-b]pyridin-2-yl]-4-methoxy-N,N,1-trimethyl-1H-pyrrole-2-carboxamide], for which the half-maximal inhibitory concentration (IC50) (at TBK1; at IKKε; in test [1]) was less than 100 nM each time.
Turning to `COc1cc(C(=O)N2CCC3(CCNC3=O)CC2)ccc1-c1cc2nccc(-c3ccc(NC4CCOCC4)c(C#N)c3)c2o1` [Compound 52, 5-{2-[2-Methoxy-4-(1-oxo-2,8-diaza-spiro[4.5]decane-8-carbonyl)-phenyl]-furo[3,2-b]pyridin-7-yl}-2-(tetrahydro-pyran-4-ylamino)-benzonitrile], the IC50 on TBK1 was less than 100 nM; at IKKε, less than 100 nM; in test [1], 100 to 1000 nM.
Regarding `COc1cc(C(=O)N(C)C)ncc1-c1cc2nccc(-c3ccc(NC4C5COCC54)c(C#N)c3)c2o1` (stereo not drawn) [Compound 437, 5-[7-[3-cyano-4-([3-oxabicyclo[3.1.0]hexan-6-yl]amino)phenyl]furo[3,2-b]pyridin-2-yl]-4-methoxy-N,N-dimethylpyridine-2-carboxamide], the IC50 at TBK1 is less than 100 nM; on IKKε it was less than 100 nM; in test [1], 100 to 1000 nM.
Consider `COc1cc(C(=O)N(C)C)ccc1-c1cc2nccc(-c3ccc(OC4CCN(C)CC4)c(C#N)c3)c2o1` [Compound 150, 4-{7-[3-Cyano-4-(1-methyl-piperidin-4-yloxy)-phenyl]-furo[3,2-b]pyridin-2-yl}-3-methoxy-N,N-dimethyl-benzamide], for which the IC50 was less than 100 nM at TBK1, less than 100 nM on IKKε and 100 to 1000 nM in test [1].
Consider `CN(C)C(=O)c1ccc(-c2cc3nccc(-c4ccc(OC5CC6(COC6)C5)c(C#N)c4)c3o2)cc1` [Compound 177, 4-{7-[3-Cyano-4-(2-oxa-spiro[3.3]hept-6-yloxy)-phenyl]-furo[3,2-b]pyridin-2-yl}-N,N-dimethyl-benzamide], for which the IC50 on TBK1 was in the range of 100 to 1000 nM; on IKKε, 100 to 1000 nM; in test [1], 1000 to 5000 nM.
Take `COc1cc(C(=O)N2CC(O)C2)ccc1-c1cc2nccc(-c3ccc(NC4CCOCC4)c(C#N)c3)c2o1` [Compound 101, 5-{2-[4-(3-Hydroxy-azetidine-1-carbonyl)-2-methoxy-phenyl]-furo[3,2-b]pyridin-7-yl}-2-(tetrahydro-pyran-4-ylamino)-benzonitrile]: the results for the IC50 (at TBK1; on IKKε; in test [1]) were less than 100 nM, less than 100 nM and 100 to 1000 nM, respectively.
`COc1cc(C(=O)N2C3CCCC2CC3)ccc1-c1cc2nccc(-c3ccc(NC4CCOCC4)c(C#N)c3)c2o1` [Compound 519]: the IC50 at TBK1 is less than 100 nM; on IKKε, less than 100 nM; in test [1] it was 100 to 1000 nM.
In the case of `COc1cc(C(=O)N2CC[C@H](O)C2)ccc1-c1cc2nccc(-c3ccc(OC4CCOCC4)c(C#N)c3)c2o1` [Compound 14, 5-{2-[4-((S)-3-Hydroxy-pyrrolidine-1-carbonyl)-2-methoxy-phenyl]-furo[3,2-b]pyridin-7-yl}-2-(tetrahydro-pyran-4-yloxy)-benzonitrile], the IC50 (at TBK1; on IKKε; in test [1]) was less than 100 nM each time.
Take `COc1cc(C(=O)N2CC3(CCCN3)C2)ccc1-c1cc2nccc(-c3ccc(OC4CCOCC4)c(C#N)c3)c2o1` [Compound 29, 5-{2-[4-(2,5-Diaza-spiro[3.4]octane-2-carbonyl)-2-methoxy-phenyl]-furo[3,2-b]pyridin-7-yl}-2-(tetrahydro-pyran-4-yloxy)-benzonitrile hydrochloride]: the concentration for half-maximal inhibition (IC50) is less than 100 nM on TBK1, less than 100 nM on IKKε and 100 to 1000 nM in test [1].
As to `COc1cc(C(=O)N(C)C)ccc1-c1cc2ncc(F)c(-c3ccc(NC4CCOCC4)c(C#N)c3)c2o1` [Compound 299, 4-(7-[3-cyano-4-[(oxan-4-yl)amino]phenyl]-6-fluorofuro[3,2-b]pyridin-2-yl)-3-methoxy-N,N-dimethylbenzamide], the IC50 is less than 100 nM on TBK1, less than 100 nM at IKKε and 100 to 1000 nM in test [1].
With `COc1cc(C(=O)N2CC[C@@H](N(C)C)C2)ncc1-c1cc2nccc(-c3ccc(N4CC[C@@H](F)C4)c(C#N)c3)c2o1` [Compound 459, 5-[2-(6-[[(3R)-3-(dimethylamino)pyrrolidin-1-yl]carbonyl]-4-methoxypyridin-3-yl)furo[3,2-b]pyridin-7-yl]-2-[(3R)-3-fluoropyrrolidin-1-yl]benzonitrile], the IC50 (at TBK1; at IKKε; in test [1]) was less than 100 nM throughout.
On to `COc1cc(C(=O)N(C)C)ncc1-c1cc2nccc(-c3ccc(OC4CCN(C(C)C)C4)c(C#N)c3)c2o1` (stereo not drawn) [Compound 428, 5-[7-(3-cyano-4-[[1-(propan-2-yl)pyrrolidin-3-yl]oxy]phenyl)furo[3,2-b]pyridin-2-yl]-4-methoxy-N,N-dimethylpyridine-2-carboxamide], for which the half-inhibitory concentration (IC50) on TBK1 was in the range of 1000 to 5000 nM; on IKKε, 1000 to 5000 nM; in test [1] it was 100 to 1000 nM.
Regarding `N#Cc1cc(-c2ccnc3cc(-c4ccc(C(=O)N5CCC(F)(F)C5)cc4)oc23)ccc1OC1CCOCC1` [Compound 148, 5-{2-[4-(3,3-Difluoro-pyrrolidine-1-carbonyl)-phenyl]-furo[3,2-b]pyridin-7-yl}-2-(tetrahydro-pyran-4-yloxy)-benzonitrile], the IC50 at TBK1 is less than 100 nM; on IKKε, less than 100 nM; in test [1], 1000 to 5000 nM.
